Assay results: patent publication US12653818B2, “Pharmaceutical compositions comprising nitroxoline lysinate, preparation method therefor and use thereof” (Jiangsu Yahong Meditech Co., Ltd., priority 2020, dated 2026)

What was measured:
[1] = Saturated solubility of the main drug in different media; assay type: physicochemical; settings: for solubility at 72 h: thermodynamic from solid, 37° C.
Protocol: The solubility of the main drug (5-nitro-8-hydroxyquinoline L-lysinate monohydrate) is greatly affected by pH. In order to select a suitable dissolution medium to achieve the sink condition, the saturated solubility of the main drug in water, pH 1.0 hydrochloric acid solution, pH 4.0 buffer (solution A: water was added to 21 g of citric acid or 19.2 g of anhydrous citric acid to obtain a 1000 mL solution, which was then stored in a refrigerator; solution B: water was added to 71.63 g of disodium hydrogen phosphate to obtain a 1000 mL solution; 61.45 mL of solution A and 38.55 mL of solution B were mixed and shaked well to obtain the pH 4.0 buffer) and pH 6.8 PBS buffer (118 mL of 0.2 mol/L sodium hydroxide solution was added to 250 mL of 0.2 mol/L phosphoric acid solution, the resulting solution was diluted with water to 1000 mL and shaked well to obtain the pH 6.8 PBS buffer) were investigated. The specific method: excessive main drug (about 1.5 g) was added to 10 mL of the above four media, respectively; the resulting mixture was placed in a SHA-B multifunctional water bath constant temperature shaker (manufacturer: Zenith Lab (Jiangsu) Co., Ltd.) at water bath temperature of 37° C. and shaked at a speed of 280 rpm for 72 hours; the solution was filtered through a 0.45 μm nitrocellulose membrane (manufacturer: Tianjin Jinteng Experimental Equipment Co., Ltd.); and the filtrate was measured with a UV-2700 ultraviolet-visible spectrophotometer (manufacturer: Shimadzu, Japan), detection wavelength: 369 nm.

[2] = compared with nitroxoline; in words; cited from earlier work

Whether the sink condition was achieved ([1]; Water)	solubility at 72 h ([1]; aqueous buffer, pH 6.8 PBS buffer) [µg/mL]	Whether the sink condition was achieved ([1]; pH 1.0 hydrochloric acid solution)	Whether the sink condition was achieved ([1]; pH 4.0 buffer)	solubility at 72 h ([1]; pH 4.0 buffer (citric acid / disodium hydrogen phosphate), aqueous buffer, pH 4.0 buffer) [µg/mL]	Whether the sink condition was achieved ([1]; pH 6.8 PBS buffer)	solubility at 72 h ([1]; simulated gastric fluid, pH 1.0 hydrochloric acid solution) [µg/mL]	solubility at 72 h ([1]; Water) [µg/mL]	SMILES	water solubility [2]
Yes	15700	Yes	No	430	Yes	1540	100000	O=[N+]([O-])c1ccc(O)c2ncccc12 [main drug, 5-nitro-8-hydroxyquinoline L-lysinate monohydrate]	
								O=[N+]([O-])c1ccc(O)c2ncccc12 [nitroxoline lysinate]	better than that of nitroxoline
